Laboratory results taken from US20050130894A1, “Process for the synchronization of ovulation for timed breeding without heat detection” (priority 2003, published 2005).

Key:
Type in all cases: in vivo, swine
[1] = test system: postpartum sows; experiment: Litter size after deslorelin treatment in postpartum sows, three farm sites (Example 4); details: regardless of estrus detection, Tables 3-5
Text: Postpartum sows were randomly distributed into three different groups comprised of Controls, Treatment 1, and Treatment 2, with the exception of Site 3, which was divided into two groups, Control and Treatment 2. Control sows were detected for estrus following weaning, and bred following the normal standard operating procedures for the farms on which they resided. Treatment 1 sows were detected for estrus following weaning, and received a 50 mcg dose of deslorelin in the morning when standing and were bred by AI 4 hours later and again at 24+/−2 hours later. Treatment 2 sows received a 50 mcg dose of deslorelin in SAIB at 96 or 120 hours post-weaning and were bred with a single insemination 28+/−2 hours later with no regard to estrus detection.

[2] = test system: postpartum sows; experiment: Single timed injection 96 hours post-weaning, single timed insemination without estrus detection (Example 3); details: 50 mcg in SAIB at 96 hours post-weaning
Description: (§1) Approximately 170 postpartum sows were randomly divided into two equal groups comprised of controls and treated. Following weaning, the controls were detected for estrus and bred following the normal standard operating procedures for the farms on which they resided. The treated sows received a 50 mcg dose of deslorelin in SAIB at 96 hours post-weaning and were bred with a single insemination 28+/−2 hours later with no regard to estrus detection. The sows were examined for pregnancy by ultrasound at 21 days and slaughtered around 28 days post breeding. The entire reproductive tract was removed and corpora lutea and embryos were counted.

[3] = test system: postpartum sows; experiment: Pregnancy rate after deslorelin treatment in sows, summary of data of Tables 2-5; details: Table 6
Description: as §1, with “counted. Postpartum sows were randomly distributed into three different groups comprised of Controls, Treatment 1, and Treatment 2, with the exception of Site 3, which was divided into two groups, Control and Treatment 2. Control sows were detected for estrus following weaning, and bred following the normal standard operating procedures for the farms on which they resided. Treatment 1 sows were detected for estrus following weaning, and received a 50 mcg dose of deslorelin in the morning when standing and were bred by AI 4 hours later and again at 24+/−2 hours later. Treatment 2 sows received a 50 mcg dose of deslorelin in SAIB at 96 or 120 hours post-weaning and were bred with a single insemination 28+/−2 hours later with no regard to estrus detection. […]” for “counted.”

[4] = test system: mature postpartum sows; experiment: Intravulvar injection at estrus detection in mature postpartum sows, AI breeding (Example 2)
Description: Sows were assigned randomly in blocks of two to either control or to be injected intravulvar with 50 mcg of deslorelin in SAIB at the time of estrus detection for sows first detected in estrus in the a.m. and 12 hours later for those first detected in estrus in the p.m. Treated animals were bred AI upon detected estrus and again 24 hours later if still in estrus. Controls received a saline injection on first detected estrus behavior estrus detection and were bred according to the farm's normal procedures.

CCNC(=O)[C@@H]1CCCN1C(=O)[C@H](CCCN=C(N)N)NC(=O)[C@H](CC(C)C)NC(=O)[C@@H](Cc1c[nH]c2ccccc12)NC(=O)[C@H](Cc1ccc(O)cc1)NC(=O)[C@H](CO)NC(=O)[C@H](Cc1c[nH]c2ccccc12)NC(=O)[C@H](Cc1cnc[nH]1)NC(=O)[C@@H]1CCC(=O)N1 [Deslorelin, deslorelin]
Litter sizes (in words) [1]: normal litter sizes | Embryo Survival [2]: 64% | Sows Pregnant ([2]; single insemination 28+/-2 hours later, 84 in group): 60 | Pregnancy Rate ([2]; single timed insemination, no estrus detection): 71% | Pregnancy rates (in words) [3]: normal pregnancy rates were obtained | Pregnancy Rate ([4]; 50 μg deslorelin acetate (1 ml) intravulvar at first estrus detection, AI, AI again if in estrus next day, n = 75): 91% | Length of Estrus ([4]; 50 μg deslorelin acetate (1 ml) intravulvar at first estrus detection, n = 69): 40.81 h | Live piglet number, Deslorelin versus Saline sows (difference) ([4]; 50 μg intravulvar at first estrus detection, live piglets born per litter, greater than control): Live piglet number 0.6> in Deslorelin versus Saline sows.
